Positions of bridges follow the written chain, without caps; N, C: chain ends. Residues, ends and D or L forms follow the SMILES beside them.

For test [1], the system named is U87-MG cells. The test is classed as cell-based, human. On the procedure: The migration and invasion assays were performed with Boyden chambers, according to De Vincenzo et al., using 11 × 10^4 U87-MG and U251-MG glioblastoma cells/sample pre-treated for 40 min at 37 °C with the indicated effectors and then allowed to migrate for 3 h or to invade for 5 h at 37 °C toward 5% FBS in DMEM/0.1% BSA. The migrated or invaded cells were reported as a percentage of basal random migration or invasion and analyzed as reported in the Statistical Analyses section. The migration and invasion experiments were conducted in triplicate.
Figure 1 Binding of Ala peptides to U87-MG cells and effect of uPAcyclin and Ala peptides on U87-MG cellular migration. (A) A total of 2 × 10^6 U87-MG cells were pre-incubated for 30 min at 4 °C with increasing concentrations of unlabeled uPAcyclin and Ala peptides and then exposed to 50 nM of FITC-uPAcyclin for 2 h at 4 °C. Cell surface-associated fluorescence, as percentage of the sample with […], is shown. Experiments were carried out in duplicate, and the data shown here are representative of three independent experiments. (B) 11 × 10^4 U87-MG cells/sample were pre-treated for 40 min at 37 °C with increasing concentrations of uPAcyclin or the indicated Ala peptides and then assayed in Boyden chambers for 5% FBS-dependent migration for 3 h at 37 °C. At the end of incubation, the filters were processed as described in the Methods section. For clarity here and in the following Figures, Ala-x indicates the peptide with substituted x-position. For both assays, the p-values are in the range of 0.005 ≤ p ≤ 0.001, apart from [Ala1]uPAcyclin in the migration assay with p ≤ 0.05.
Alterations of the amino acid sequence may affect the peptide structure and may, in turn, alter its function. To test for differences in the inhibitory activity of the Ala-substituted peptides, U87-MG glioblastoma cells were subjected to a directional migration assay in Boyden chambers towards FBS, in the presence or in the absence of the indicated concentrations of uPAcyclin or one of its Ala-scan derivatives (Figure 1B).

Test [2] relates to U87-MG cells. The test is described as follows: F-actin cytoskeletal rearrangement, rhodamine-phalloidin staining. It is filed as cell-based, human. The note with it: 100 nM peptide pre-incubated 40 min 37 °C, then 5% FBS 3 h. On the procedure: The U87-MG cells were analyzed for their cytoskeletal organization upon exposure to the indicated peptides. Briefly, 2 × 10^5 cells/sample were harvested via mild trypsinization, pre-treated for 40 min at 37 °C with 100 nM of selected peptides, and incubated with 5% FBS for 3 h at 37 °C. Samples diluted in a serum-free medium were included as negative controls. Then cells were fixed, permeabilized, and stained with 0.1 μg/mL rhodamine–phalloidin (Sigma-Merck, St. Louis, MO, USA) for 40 min at rt. To stain nuclei, the slides were incubated with 20 ng/mL DAPI (4′,6-Diamidino-2- phenylindole, Sigma-Merck, St. Louis, MO, USA) for 10 min at rt, mounted with Mowiol Mounting Medium (Sigma-Merck, St. Louis, MO, USA), and examined with the DMI6000 Leica Inverted Fluorescence Microscope ([…], Milan, Italy) at 40× magnification. At least 4 fields/samples were acquired, and the total fluorescence was measured with ImageJ.
Figure 5 Representative images of U87-MG cytoskeletal rearrangements. […] F-actin was detected via staining with rhodamine–phalloidin, as specified in the Methods section, using the Leica DMI 6000 Inverted Microscope at 40× magnification. […] In the histogram, the results are expressed as a percentage of total fluorescence intensity in the absence of FBS and peptide (no peptide); ** p-value < 0.005, * p ≤ 0.05.

Test [3] addresses T1, αV integrin on U251-MG cells (Homo sapiens, UniProt P06756).
T1 construct: endogenous in cells; host or cells: U251-MG human glioblastoma cells (acid-treated, 4 °C)
In words: Receptor binding assay: displacement of FITC-uPAcyclin from U251-MG cells. The note with it: competition with FITC-uPAcyclin. The procedure:
The U87-MG and U251-MG cell lines were harvested and acid-treated, as described. Briefly, 2 × 10^6 cells/sample were pre-incubated for 30 min at 4 °C with uPAcyclin and Ala peptides and subsequently exposed to 50 nM FITC-uPAcyclin for 2 h at 4 °C, as described. The experiments were performed three times, with duplicate samples, and analyzed as reported in the statistical analysis.
To rule out the possibility that the effects observed may be restricted to a single cell line, testing was extended to the U251-MG cell line, derived from a human glioblastoma with a mesenchymal-like phenotype with a lower proliferative capacity than U87-MG cells. This cell line was analyzed for the ability to specifically bind the FITC-uPAcyclin, in the presence of increasing concentrations of unlabeled [Ala^2,Ala^5]uPAcyclin, together with the parent uPAcyclin and the selected cyclopeptides [Ala^1]uPAcyclin, [Ala^4]uPAcyclin and [Ala^8]uPAcyclin (Figure 4A). In particular, [Ala^1]uPAcyclin and [Ala^8]uPAcyclin were selected for their contrasting affinity/activity observed on U87-MG glioblastoma cells, while [Ala^4]uPAcyclin was chosen to confirm the importance of Ser4 both in binding and in the anti-migratory activity of uPAcyclin.
Figure 4 Binding and biological effect of selected Ala peptides on U251-MG migration and invasion. […]

T1 sequence (P06756 31-889 limits assumed): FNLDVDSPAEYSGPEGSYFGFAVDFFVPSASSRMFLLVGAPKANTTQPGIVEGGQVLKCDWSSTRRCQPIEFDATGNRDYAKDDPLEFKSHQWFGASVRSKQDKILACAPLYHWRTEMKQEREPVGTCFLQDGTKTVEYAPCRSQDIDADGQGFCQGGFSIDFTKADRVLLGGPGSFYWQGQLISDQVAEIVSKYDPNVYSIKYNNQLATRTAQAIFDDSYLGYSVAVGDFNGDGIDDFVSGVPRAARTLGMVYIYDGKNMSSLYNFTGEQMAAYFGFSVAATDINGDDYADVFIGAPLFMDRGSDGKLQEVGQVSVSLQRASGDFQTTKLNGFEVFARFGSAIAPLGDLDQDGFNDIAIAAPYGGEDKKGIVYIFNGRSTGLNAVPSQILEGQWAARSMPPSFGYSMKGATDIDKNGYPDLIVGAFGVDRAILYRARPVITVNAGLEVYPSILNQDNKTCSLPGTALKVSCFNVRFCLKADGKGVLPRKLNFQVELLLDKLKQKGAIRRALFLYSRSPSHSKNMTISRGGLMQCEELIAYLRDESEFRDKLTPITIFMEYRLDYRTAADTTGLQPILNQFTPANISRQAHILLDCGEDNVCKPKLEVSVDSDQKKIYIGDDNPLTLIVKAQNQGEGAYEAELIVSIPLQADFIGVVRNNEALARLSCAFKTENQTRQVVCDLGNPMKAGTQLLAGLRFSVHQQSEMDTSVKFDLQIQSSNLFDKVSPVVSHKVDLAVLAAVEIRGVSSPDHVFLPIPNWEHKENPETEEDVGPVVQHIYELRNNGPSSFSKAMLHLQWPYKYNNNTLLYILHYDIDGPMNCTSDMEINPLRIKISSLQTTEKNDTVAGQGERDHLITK
T1 sequence (P06756 891-1048 limits assumed): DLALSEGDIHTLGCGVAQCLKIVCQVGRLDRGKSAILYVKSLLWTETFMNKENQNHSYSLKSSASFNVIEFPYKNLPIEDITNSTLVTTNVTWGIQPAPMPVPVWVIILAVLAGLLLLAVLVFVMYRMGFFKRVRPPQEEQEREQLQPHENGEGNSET

Take `CC(=O)N[C@@H](CCCCN)C(=O)N[C@@H](C)C(=O)N[C@H]1CCC(=O)NCCCC[C@@H](C(N)=O)NC(=O)[C@H](CC(C)C)NC(=O)[C@H](CCC(=O)O)NC(=O)[C@H](CCC(=O)O)NC(=O)[C@@H]2CCCN2C(=O)[C@H](C)NC(=O)[C@H](CO)NC1=O` [[Ala^2,Ala^5]uPAcyclin] (Ac-KAESAPEELK-NH2; lactam 3-10): the “IC50 of migration lower / inhibitory activity higher than parental uPAcyclin” value in test [1] (U87-MG migration) was roughly 100 fold. Further, the “inhibitory activity on cell migration, comparison (in words)” value in test [1] (U87-MG migration toward 5% FBS) is recorded as “most potent peptide of the series”. In addition, the “IC50 of migration lower than the single variants” value in test [1] (U87-MG migration, versus [Ala^2]uPAcyclin and [Ala^5]uPAcyclin) is recorded as “about 10 fold”. Besides, the “migration reduced to (percentage of basal random migration)” value in test [1] (U87-MG, 5% FBS, concentration not given) is recorded as “about 70%”. The “reduction in total F-actin fluorescence (inhibition of cytoskeletal rearrangements)” value in test [2] came to 50%. In addition, in test [3], the “binding to U251-MG cells (in words)” value is on record as “binds with the highest affinity”.
`CC(=O)N[C@@H](CCCCN)C(=O)N1CCC[C@H]1C(=O)N[C@H]1CCC(=O)NCCCC[C@@H](C(N)=O)NC(=O)[C@H](CC(C)C)NC(=O)[C@H](CCC(=O)O)NC(=O)[C@H](CCC(=O)O)NC(=O)[C@@H]2CCCN2C(=O)[C@@H]2CCCN2C(=O)[C@H](CO)NC1=O` [uPAcyclin] (Ac-KPESPPEELK-NH2; lactam 3-10): in test [1] (U87-MG migration toward 5% FBS), the “concentration at which dose-dependent inhibitory activity starts” value is given as 1 pM. In addition, the “effect on FBS-induced directional migration (in words)” value in test [1] (U87-MG, 1 µM peptide) is listed as “abolishes FBS-induced directional migration”. For the same compound, the “reduction in total F-actin fluorescence (inhibition of cytoskeletal rearrangements)” value in test [2] is 35%. The “binding to U251-MG cells (in words)” value in test [3] is “dose-dependent decrease in cell-associated fluorescence”.

The record behind these values is paper PMC11853379, “Glioblastoma Cell Migration, Invasion and Vasculogenic Mimicry Downmodulated by Novel uPAcyclin Derivatives” (Cells, 2025).
